The text below walks through data of US5164381A, “Pharmacologically active 1,5-diaryl-3-substituted pyrazoles and method for synthesizing the same” (Ortho Pharmaceutical Corporation, priority 1991, dated 1992).

The first assay concerns Lewis strain laboratory rats. The experiment in a line: In vivo alleviation of inflammation: polyarthritis (adjuvant, Mycobacterium butyricum) in rats, inhibition of paw volume increase. The following applies: p.o., rat. As to the method:
Polyarthritis was induced in Lewis strain laboratory rats (weight=about 200 grams) by injection of a suspension of Mycobacterium butyricum in mineral oil into the subplantar tissue of the mammal's hind paws. On day 10 after the injection, the rats were assigned to groups, and paw volumes and body weights were recorded. Paw volumes of the contralateral, uninjected hind paw were determined by mercury plethylsmography. Per oral (p.o.) dosing began and continued for five consecutive days thereafter. On day 14 after the initial injection, approximately four hours after the final dose was administered, paw volumes and body weights were recorded and quantitated.
Anti-inflammatory activity of the substituted pyrazole compounds is expressed as the percent inhibition of paw volume increase.
In the case of `COc1ccc(-n2nc(CCC(=O)O)cc2-c2ccc(Cl)cc2)cc1` [Compound 12, 3-[5-(4-Chlorophenyl)-1-(4-methoxyphenyl)-3-pyrazolyl] propionic acid], the “ED50 (effective dose to obtain a 50% inhibition of inflammation)” value is 5.2 mpk.

Staying with this assay, now noted: po, 336 h; 10 mpk p.o., rat; read-out: % INH. p.o. (percentage inhibition of pad swelling).
In the case of `CCc1ccc(-c2cc(CCC(=O)N(C)O)nn2-c2ccc(OC)cc2)cc1` [Compound 119], the inhibition in vivo at 10 mg/kg was 24%.

As for `CCC(CCc1cc(-c2ccc(Cl)cc2)n(-c2ccc(OC)cc2)n1)=NNc1nccs1` [Compound 175], the inhibition in vivo at 10 mg/kg was 16%.

Consider `COc1ccc(-n2nc(CCCN(O)C(=O)c3ccccc3)cc2-c2ccc(Cl)cc2)cc1` [Compound 155], for which the inhibition in vivo at 10 mg/kg is 45%.

Take `CCCCCCCCNC(=O)CCc1cc(-c2ccc(Cl)cc2)n(-c2ccc(OC)cc2)n1` [Compound 186]: the inhibition in vivo at 10 mg/kg was 37%.

As for `COc1ccc(-n2nc(CCC(=O)N(C)OC(=O)C(C)(C)C)cc2-c2ccc(Cl)cc2)cc1` [Compound 141], the inhibition in vivo at 10 mg/kg came out at 17%.

Consider `CCc1ccc(-c2cc(CCC(=O)O)nn2-c2ccc(OC)cc2)cc1` [Compound 110], for which the inhibition in vivo at 10 mg/kg stood at 51%.

For `COc1ccc(-n2nc(CCC(=O)N(O)C(C)C(=O)O)cc2-c2ccc(Cl)cc2)cc1` (centres unmarked) [Compound 145], the inhibition in vivo at 10 mg/kg is 61%.

The same assay, now with this note: po, 336 h; 15 mpk p.o., rat; read-out: % INH. p.o. (percentage inhibition of pad swelling).
For `CCOC(=O)C(CSC)NC(=O)CCc1cc(-c2ccc(Cl)cc2)n(-c2ccc(OC)cc2)n1` (centres unmarked) [Compound 101], the inhibition in vivo at 15 mg/kg amounted to 57%.

For `CCOc1ccc(-n2nc(CCC(=O)O)cc2-c2ccc(Cl)cc2)cc1` [Compound 72], the inhibition in vivo at 15 mg/kg was found to be 71%.

Turning to `COc1ccc(-n2nc(CCC(=O)O)c(Br)c2-c2ccc(Cl)cc2)cc1` [Compound 147, 3-[4-Bromo-5-(4-Chlorophenyl)-1-(4-methoxyphenyl)-3-pyrazolyl]-propionic acid], the inhibition in vivo at 15 mg/kg is 79%.

For the compound `COc1ccc(-n2nc(CCC(=O)N(O)C(C)C)cc2-c2ccc(Cl)cc2)cc1` [Compound 81, 3-[5-(4-chlorophenyl)-1-(4-methoxyphenyl)-3-pyrazolyl]-N-hydroxy-N-isopropylpropanamide], the inhibition in vivo at 15 mg/kg was determined as 50%.

On to `COc1ccc(-n2nc(CCC(=O)N(O)C3CCCCC3)cc2-c2ccc(Cl)cc2)cc1` [Compound 82, 3-[5-(4-chlorophenyl)-1-(4-methoxyphenyl)-3-pyrazolyl]-N-cyclohexyl-N-hydroxypropanamide], for which the inhibition in vivo at 15 mg/kg was 54%.

Take `COc1ccc(-n2nc(CCC(C)=NNc3nccs3)cc2-c2ccc(Cl)cc2)cc1` [Compound 173, 5-(4-Chlorophenyl)-1-(4-methoxyphenyl)-3-(3-oxobutyl)pyrazole thiazol-2-yl hydrazone]: the inhibition in vivo at 15 mg/kg turned out to be 39%.

The same assay, now with this note: po, 336 h; 25 mpk p.o., rat; read-out: % INH. p.o. (percentage inhibition of pad swelling).
As for `COc1ccc(-n2nc(CCC(=O)N(C)O)cc2-c2ccc(F)cc2)cc1` [Compound 45, 3-[5-(4-Fluorophenyl)-1-(4-methoxyphenyl)-3-pyrazolyl]-N-hydroxy-N-methyl propanamide], the inhibition in vivo at 25 mg/kg was determined as 51%.

As to `COc1ccc(-n2nc(CCCNO)cc2-c2ccc(Cl)cc2)cc1` [Compound 151, N-[3-[5-(4-Chlorophenyl)-1-(4-methoxyphenyl)-3-pyrazolyl]propyl]hydroxyl-amine], the inhibition in vivo at 25 mg/kg came to 42%.

The same assay, now with this note: po, 336 h; 30 mpk p.o., rat; read-out: % INH. p.o. (percentage inhibition of pad swelling).
Regarding `COc1ccc(-n2nc(CCCN)cc2-c2ccc(Cl)cc2)cc1` [Compound 96, 3-[5-(4-Chlorophenyl)-1-(4-methoxyphenyl)-3-pyrazolyl]propylamine], the inhibition in vivo at 30 mg/kg turned out to be 56%.

On to `CCN(CC)OC(=O)CCc1cc(-c2ccc(Cl)cc2)n(-c2ccc(OC)cc2)n1` [Compound 102], for which the inhibition in vivo at 30 mg/kg came out at 87%.

Still in this assay, the particulars now being: po, 336 h; 40 mpk p.o., rat; read-out: % INH. p.o. (percentage inhibition of pad swelling).
On to `COc1ccc(-n2nc(CCC(=O)N(O)c3ccccc3)cc2-c2ccc(Cl)cc2)cc1` [Compound 84, 3-[5-(4-chlorophenyl)-1-(4-methoxyphenyl)-3-pyrazolyl]-N-hydroxy-N-phenylpropanamide], for which the inhibition in vivo at 40 mg/kg amounted to 27%.

With `COc1ccc(-n2nc(CC/C=C\CCCC(N)=O)cc2-c2ccc(Cl)cc2)cc1` [Compound 38], the inhibition in vivo at 40 mg/kg was determined as 40%.
